Key:
brain tissues = assay: Alzheimer's disease study in HFD + icv STZ rats, histopathology (HE) of brain tissues; type: in vivo, Sprague-Dawley rats
Procedure: (§1) 12 weeks old female Sprague-Dawley rats (weighing 320-380 g) were kept at a controlled temperature of 22±2° C. and a controlled humidity of 50±5% on a 12-hour light/dark cycle. Food and water were available ad libitum. The animal experiments are performed at Medical Experimental Research Center, Ataturk University, Erzurum, Turkey. All experiments for the treatment of the animals were approved by the Ethics Committee of Atatürk University, and were conducted following the National Institutes of Health Guide for Care and Use of Laboratory Animals.
(§2) After acclimation to laboratory conditions for one (1) week, rats were randomly divided into two dietary regimens receiving either a Chow diet (CD) or a high-fat diet (HFD. The animals of Group 1 (n=4) were fed with only regular CD for five (5) weeks. The animals of Group 2 (n=4) were fed with CD and treated with STZ. The remaining animals (n=4) were fed with HFD for 3 weeks and sacrificed to verify the model development (Group 3). Groups 4-13 were fed with HFD for 5 weeks. After 3 weeks, the animals in Groups 5-13 were treated with STZ and administered with individual or combined substances. The animals in Group 4 were injected (icy) with a control substance (saline) after 3 weeks.
(§3) Before surgical procedures, the rats were anesthetized by intraperitoneal administration of ketamine-xylazine (50 mg/kg ketamine and 5 mg/kg xylazine) and placed individually in the stereotaxic instrument (Stoelting, Ill., USA). Stereotaxic coordinates for injection were 0.8 mm posterior to the bregma, 1.5 mm lateral to the sagittal suture and 3.6 mm below the brain surface (Pellegrino et al. 1979). Then, 10 microliters of STZ (3 mg/kg, Sigma-Aldrich, Darmstadt, Germany) were injected over 3 min with a Hamilton micro-syringe into the bilateral ventricle. The injection needles were left in place for an additional 2 min to allow diffusion.
(§4) For carrying out the treatment experiments, the HFD rats were randomly separated into nine (9) subgroups of four (4) animals (Groups 5-13).
(§5) The body weight of the rats was recorded each week. After 5 weeks, all animals were anesthetized with isoflurane and sacrificed. Blood samples were collected from the abdominal aorta and centrifuged at 8000 rpm for 15 min at 4° C. The plasma was separated and stored at −80° C. until further analysis. Other internal organs, including the heart, adipose tissues, liver, kidney, brain, muscle, intestine (duodenum, ileum, jejunum), pancreas, colon and stomach were immediately removed and then snap-frozen in liquid nitrogen and stored at −80° C.
Tissue samples obtained as a result of the experimental procedure were fixed in 10% buffered formalin solution for 48 hours. Following the routine tissue procedure, the tissues were embedded in paraffin blocks and 4 μm thick sections were taken from each block. Preparations prepared for histopathological examination were stained with hematoxylin-eosin (HE) and examined with a light microscope (Olympus BX51, Germany).

8-OHdG = assay: Alzheimer's disease study in HFD + icv STZ rats, immunohistochemical examination of brain tissues; type: in vivo, Sprague-Dawley rats; details: for 8-OHdG (IHC): HFD 5 weeks + STZ 3 mg/kg icv, substances once daily by oral gavage, score; for 8 OHdG expression in immunohistochemical staining: HFD + STZ rats, grade in words
Procedure: as §1, §2, §3, §4, §5
Tissue sections taken on adhesive (poly-L-Lysin) slides for immunoperoxidase examination were deparaffinized and […]. After washing the tissues with suppressed endogenous peroxidase activity in 3% H2O2 were boiled in antigen retrieval solution. In order to prevent nonspecific background staining in the sections, protein block compatible with all primary and secondary antibodies was dropped and incubated for 5 minutes. 8-OHdG (Cat no: sc-66036 dilution ratio: 1/100 US) was used as the primary antibody for brain tissues.

Caspase 3 = assay: Alzheimer's disease study in HFD + icv STZ rats, immunofluorescence examination of brain tissues (FITC); type: in vivo, Sprague-Dawley rats; details: for Caspase 3 (IFA FITC): HFD 5 weeks + STZ 3 mg/kg icv, substances once daily by oral gavage, score; for Caspase-3 expression in immunofluorescence staining: HFD + STZ rats, grade in words
Procedure: as §1, §2, §3, §4, §5
(§6) Tissue sections taken on adhesive (poly-L-Lysin) slides for immunoperoxidase examination were deparaffinized and […]. After washing the tissues with suppressed endogenous peroxidase activity in 3% H2O2 were boiled in antigen retrieval solution. In order to prevent nonspecific background staining in the sections, protein block compatible with all primary and secondary antibodies was dropped and incubated for 5 minutes. For brain tissues, primary antibody Caspase 3 (Cat No:sc-56053 Dilution Ratio:1/100 US) was dropped and incubated for 1 hour at 37° C. After washing, secondary FITC (Cat No: ab6717 Dilution Ratio:1/500 UK) was dropped and incubated at 37° C. for 30 minutes. The other primary antibody H2A.X (Cat No:I 0856-1 Dilution Ratio:1/100 US) was dropped and incubated at 37° C. for 1 hour. After washing, secondary Texas Red (Cat No: se-3917 Dilution Ratio:1/100 US) was dropped and incubated at 37° C. for 30 minutes. DAPI (Cat No:D-1306 Dilution Ratio:1/200 US) was dripped onto the washed tissues and incubated in the dark for 5 minutes, then glycerin was sealed.

H2A.X = assay: Alzheimer's disease study in HFD + icv STZ rats, immunofluorescence examination of brain tissues (Texas Red); type: in vivo, Sprague-Dawley rats; details: for H2A.X (IFA Texas Red): HFD 5 weeks + STZ 3 mg/kg icv, substances once daily by oral gavage, score; for H2A.X expression in immunofluorescence staining: HFD + STZ rats, grade in words
Procedure: as §1, §2, §3, §4, §5, §6

hepatic steatosis = assay: short-term dietary supplementation with serine in obese subjects with hepatic steatosis; type: in vivo, human
Procedure: To test the model-based predictions, the present inventors assessed the effect of short-term dietary supplementation with serine on fatty liver and fasting levels of plasma markers of liver functions in six obese subjects (BMI 32.5±2.70 kg/m2) with hepatic steatosis. Each patient received one oral dose of ˜20 g of L-serine (200 mg/kg) per day for 14 days. The supplementation was well-tolerated by all subjects.

[1] = brain tissues, HFD 5 weeks + STZ 3 mg/kg icv, substances once daily by oral gavage, score
[2] = fasting plasma marker of liver function, after 14 days of ~20 g/day oral L-serine

SMILES	Hyperemia (brain tissues; [1])	degeneration in neurons (brain tissues; [1])	necrosis in neurons (brain tissues; [1])	8-OHdG (IHC) (8-OHdG)	Caspase 3 (IFA FITC) (Caspase 3)	H2A.X (IFA Texas Red) (H2A.X)	degeneration in neurons (brain tissues; HFD + STZ rats, grade in words)	hyperemia in brain tissues (brain tissues; HFD + STZ rats, grade in words)	necrosis in neurons (brain tissues; HFD + STZ rats, grade in words)	8 OHdG expression in immunohistochemical staining (8-OHdG)	Caspase-3 expression in immunofluorescence staining (Caspase 3)	H2A.X expression in immunofluorescence staining (H2A.X)	liver fat after supplementation (hepatic steatosis; after 14 days of ~20 g/day oral L-serine, decreased significantly from 26.8±6.0% before)	ALP level (hepatic steatosis; [2])	ALT level (hepatic steatosis; [2])	AST level (hepatic steatosis; [2])	tolerability of the supplementation (hepatic steatosis; six obese subjects, one oral dose of ~20 g L-serine (200 mg/kg) per day for 14 days)
NC(=O)c1ccc[n+](C2OC(CO)C(O)C2O)c1.[Cl-] (centres unmarked) [Group 9]	+++ (moderate (+++))	+++ (moderate (+++))	++ (mild (++))	+++ (moderate (+++))	+++ (moderate (+++))	+++ (moderate (+++))	–	–	–	–	–	–	–	–	–	–	–
C[N+](C)(C)C[C@H](O)CC(=O)[O-].O=C(O)C(O)C(O)C(=O)O [Group 8, L-carnitine tartrate, reference compound]	–	–	–	–	–	–	moderate	Moderate	mild	moderate	moderate	moderate	–	–	–	–	–
N[C@@H](CO)C(=O)O [Group 6, serine]	–	–	–	–	–	–	moderate	Moderate	mild	moderate	moderate	moderate	20.4±7.0%	significantly decreased	significantly decreased	significantly decreased	well-tolerated
CC(=O)NC(CS)C(=O)O (centres unmarked) [Group 7]	++++ (severe (++++))	++++ (severe (++++))	+++ (moderate (+++))	+++ (moderate (+++))	+++ (moderate (+++))	+++ (moderate (+++))	–	–	–	–	–	–	–	–	–	–	–
NC(CO)C(=O)O (centres unmarked) [Group 6]	+++ (moderate (+++))	+++ (moderate (+++))	++ (mild (++))	+++ (moderate (+++))	+++ (moderate (+++))	+++ (moderate (+++))	–	–	–	–	–	–	–	–	–	–	–
CC(=O)N[C@@H](CS)C(=O)O [Group 7, N-acetyl-L-cysteine, reference compound]	–	–	–	–	–	–	severe	Severe	moderate	moderate	moderate	moderate	–	–	–	–	–
C[N+](C)(C)CC(O)CC(=O)O.C[N+](C)(C)CC(O)CC(=O)O.O=C([O-])C(O)C(O)C(=O)[O-] (centres unmarked) [Group 8]	+++ (moderate (+++))	+++ (moderate (+++))	++ (mild (++))	+++ (moderate (+++))	+++ (moderate (+++))	+++ (moderate (+++))	–	–	–	–	–	–	–	–	–	–	–
NC(=O)c1ccc[n+]([C@@H]2O[C@H](CO)[C@@H](O)[C@H]2O)c1.[Cl-] [Group 9, nicotinamide riboside chloride]	–	–	–	–	–	–	moderate	Moderate	mild	moderate	moderate	moderate	–	–	–	–	–
